According to patent US20200148617A1, “GEMCABENE, PHARMACEUTICALLY ACCEPTABLE SALTS THEREOF, COMPOSITIONS THEREOF AND METHODS OF USE THEREFOR” (GEMPHIRE THERAPEUTICS INC., priority 2017, published 2020):

Legend:
[1] = system: hepatic mRNA expression in STAM™ mice; experiment: Murine STAM model of NASH-HCC: hepatic gene expression by quantitative RT-PCR; type: in vivo, mouse
Experimental: A study was performed to evaluate the efficacy of gemcabene calcium salt hydrate Crystal Form 1 having a PSD90 of 52 μm as measured by laser light diffraction, in treating non-alcoholic steatosis hepatitis (NASH) in the murine STAM™ model of NASH-HCC.
Briefly, two-day old neonatal C57BL/6 male mice were administered low-dose streptozotocin (STZ), and were subsequently fed a HFC diet from 4 weeks of age. In this model, the mice typically develop liver steatosis and diabetes, reaching steatohepatitis within 3 weeks, followed by cirrhosis within 8 weeks, and carcinoma within 16 weeks. In the current study, mice were administered daily oral gemcabene calcium salt hydrate Crystal Form 1 starting at week 6 of age and were sacrificed at week 9. Telmisartan (with antisteatotic, anti-inflammatory and antifibrotic effects in STAM™ mice) was used as a positive comparator. A baseline reference group was administered vehicle at day 2 of age, and from week 6 of age was vehicle-treated and chow-fed. Five STAM™ groups were streptozocin-treated at day 2 of age and fed a HFC-diet beginning with week 4 of age. These STAM™ groups were orally administered from week 6 one of the following: water-vehicle, gemcabene calcium salt hydrate Crystal Form 1 at 30, 100 and 300 mg/kg daily, or telmisartan ([…]®) 10 mg/kg daily. Telmisartan ([…]®) was purchased from Boehringer Ingelheim GmbH (Germany) and dissolved in pure water. All groups were sacrificed at week 9. Vehicle, gemcabene calcium salt hydrate Crystal Form 1, or telmisartan were administered by oral gavage once daily.
Various gene expression markers of liver metabolism were evaluated by Real-Time PCR (RT-PCR) in all mouse groups. Total RNA was extracted from liver samples using RNAiso (Takara Bio, Japan) according to the manufacturer's instructions. One μg of RNA was reverse-transcribed using a reaction mixture containing 4.4 mM MgCl2 (F. Hoffmann-La Roche, Switzerland), 40 U RNase inhibitor (Toyobo, Japan), 0.5 mM dNTP (Promega, USA), 6.28 μM random hexamer (Promega), 5× first strand buffer (Promega), 10 mM dithiothreitol (Invitrogen, USA) and 200 U MMLV-RT (Invitrogen) in a final volume of 20 μL. The reaction was carried out for 1 hour at 37° C., followed by 5 minutes at 99° C. Real-time PCR was performed using real-time PCR DICE and SYBR premix Taq (Takara Bio). To calculate the relative mRNA expression level, the expression of each gene was normalized to that of reference gene 36B4 (gene symbol: Rplp0). Information of PCR-primer sets is described in Tables 20A-20C. Statistical analyses were performed using the Bonferroni Multiple Comparison Test on GraphPad Prism 6 (GraphPad Software Inc., USA). P values <0.05 were considered statistically significant. Results are expressed as mean±SD.
In order to calculate the relative mRNA expression level, the expression of each gene was normalized to that of the reference gene 36B4 (gene symbol: Rplp0). The gene expression levels were measured by quantitative RT-PCR. Results were normalized with values for the vehicle-treated normal group. […] Gemcabene calcium salt hydrate Crystal Form 1 (PSD90=52 μm) modulated the mRNA expression of many hepatic genes that play a significant role in the liver homeostasis and injury.

[2] = Particle size distribution by laser light diffraction (Malvern Mastersizer 2000, Fraunhofer); type: physicochemical; conditions: cumulative volume
Experimental: In some embodiments, the particle size distribution and the PSD90 of a compound of the invention is determined by the laser light diffraction particle size distribution analysis. The particle size distribution is determined in accordance with the Fraunhofer light diffraction method. In this method, a coherent laser beam passes through the sample and the resulting diffraction pattern is focused on a multi-element detector. Since the diffraction pattern depends, among other parameters, on particle size, the particle size distribution can be calculated based on the measured diffraction pattern of the sample. The method is described in more detail in USP38-NF33, <429> Light Diffraction Measurement of Particle Size.
The particle size distribution was determined in accordance with the Fraunhofer light diffraction method. A coherent laser beam was passed through the sample and the resulting diffraction pattern was focused on a multi-element detector. Because the diffraction pattern depends, among other parameters, on particle size, the particle size distribution (PSD) was calculated based on the measured diffraction patter of the sample.
Stock dispersion solution was prepared by adding a few drops of the dispersing aid (e.g., 1% w/w solution of a detergent in white spirit such as Span 80, Fluka (85548-250 ml)) to an appropriate amount of substance and mixed carefully. The dispersion was then slowly diluted to a final volume of about 10 ml while vortexing. The suspension cell of the instrument (Malvern Mastersizer 2000 equipped with Hydro 2000S sample dispersion unit) was filled with dispersion medium and a background measurement was taken. […] The cumulative volume distribution was determined in accordance with the instrument's instruction manual.
The PSD10, PSD50, and PSD90 values were determined from the cumulative volume distribution of each measurement. Values smaller than 10 μm were reported to one decimal place. Results larger than 10 μm were reported as single digit values. Sample parameters used in analysis are shown below: […]

[3] = Effect of steady-state gemcabene 600 mg on single-dose pharmacokinetics of ON 1/35 (ethinyl estradiol/norethindrone) in healthy female subjects; type: in vivo, human; conditions: for exposure in presence of gemcabene calcium salt hydrate Crystal Form 1 (geometric LS mean ratio): single dose ON 1/35 with gemcabene 600 mg daily at steady state, mild drug-drug interaction
Experimental: An open-label, two-sequence, cross-over study to assess the steady-state effects of gemcabene on the single-dose pharmacokinetics (PK) of oral contraceptive tablets in healthy female subjects was conducted with 300 mg tablets containing gemcabene calcium salt hydrate Crystal Form 1 having PSD90 of 52 μm (Tablet F).
The population for this study was generally healthy, adult female subjects of childbearing potential (≥18 to ≤35 years of age). This population supports the overall objective of the study to evaluate the effect of 600 mg of gemcabene calcium salt hydrate Crystal Form 1 having PSD90 of 52 μm at steady-state on the PK of a single dose of ON 1/35 (Ortho Novum 1/35; combined ethinyl estradiol/norethindrone oral contraceptive). The primary objective of this study was to assess the effect of daily 600 mg of gemcabene calcium salt hydrate Crystal Form 1 having PSD90 of 52 μm at steady-state on the pharmacokinetics (PK) of ON 1/35. The secondary objectives of this study were to assess the safety and tolerability of daily gemcabene 600 mg in combination with a single-dose ON 1/35 and to assess the steady-state PK of 600 mg of gemcabene calcium salt hydrate Crystal Form 1 having PSD90 of 52 μm (Tablet F×2).
Gemcabene calcium salt hydrate Crystal Form 1 having PSD90 of 52 μm was administered orally as a single dose of 600 mg, given as two 300 mg tablets (300-mg Tablet F×2) (with 240 mL of water). Gemcabene calcium salt hydrate Crystal Form 1 having PSD90 of 52 μm (600 mg) was administered at the same time each day.
Non-compartmental PK single-dose parameters were obtained, including Cmax, time to the maximum observed plasma concentration (Tmax), AUC from time 0 to time of last detectable concentration (AUClast) and when possible, AUC extrapolated to infinite time (AUC∞), percent of AUC∞ obtained from forward extrapolation (AUCextrap %), apparent terminal rate constant (λz), apparent terminal half-life ([…]), apparent total body clearance (CL/F), and apparent volume of distribution of the terminal phase (Vz/F) for ethinyl estradiol and norethindrone.

[4] = 10 mg/kg, normalized to Vehicle in Normal, mean ± SD, n = 7
[5] = Treatment B = single dose ON 1/35 and daily gemcabene 600 mg, Treatment A = single dose ON 1/35 alone, healthy female subjects

Compound | D10 (PSD10) [2] [μm] | D50 (PSD50) [2] [μm] | D90 (PSD90) [2] [μm] | further results
CCCc1nc2c(C)cc(-c3nc4ccccc4n3C)cc2n1Cc1ccc(-c2ccccc2C(=O)O)cc1 [telmisartan, reference compound] |  |  |  | ANGPTL3 gene expression (hepatic mRNA, RT-PCR) [1, 4]: 0.7 ± 0.2; ANGPTL4 gene expression (hepatic mRNA, RT-PCR) [1, 4]: 2.1 ± 0.3; CCR5 gene expression (hepatic mRNA, RT-PCR) [1, 4]: 1.5 ± 0.3; CXCL1/KC gene expression (hepatic mRNA, RT-PCR) [1, 4]: 0.6 ± 0.3; LPL gene expression (hepatic mRNA, RT-PCR) [1, 4]: 2.4 ± 0.5; Sulf-2 gene expression (hepatic mRNA, RT-PCR) [1, 4]: 3.9 ± 0.9; CRP mRNA levels ([1]; telmisartan 10 mg/kg, vs vehicle-treated STAM group): No significant differences
CC(C)(CCCCOCCCCC(C)(C)C(=O)[O-])C(=O)[O-].[Ca+2] [Sample 7] | 5.4 | 20 | 62 | 
CC(C)(CCCCOCCCCC(C)(C)C(=O)[O-])C(=O)[O-].[Ca+2] [Sample 2] | 4.8 | 22.9 |  | 
C#C[C@]1(O)CC[C@H]2[C@@H]3CCC4=CC(=O)CC[C@@H]4[C@H]3CC[C@@]21C [norethindrone] |  |  |  | AUCinf (h*pg/mL): Ratio Geom. LS Mean (Treatment B/Treatment A) [3, 5]: 86.33%; AUClast (h*pg/mL): Ratio Geom. LS Mean (Treatment B/Treatment A) [3, 5]: 85.94%; Cmax (pg/mL): Ratio Geom. LS Mean (Treatment B/Treatment A) [3, 5]: 90.56%; exposure in presence of gemcabene calcium salt hydrate Crystal Form 1 (geometric LS mean ratio) [3]: slightly decreased
CC(C)(CCCCOCCCCC(C)(C)C(=O)[O-])C(=O)[O-].[Ca+2] [Sample 11] |  |  | 47 | 
CC(C)(CCCCOCCCCC(C)(C)C(=O)[O-])C(=O)[O-].[Ca+2] [Sample 5] | 7.8 | 101 | 431 | 
CC(C)(CCCCOCCCCC(C)(C)C(=O)[O-])C(=O)[O-].[Ca+2] [Sample 6] | 7.8 | 25 | 52 | 
CC(C)(CCCCOCCCCC(C)(C)C(=O)[O-])C(=O)[O-].[Ca+2] [Sample 4] | 5.8 | 22 | 52 | 
CC(C)(CCCCOCCCCC(C)(C)C(=O)[O-])C(=O)[O-].[Ca+2] [Sample 3] | 5.3 | 32.2 |  | 
CC(C)(CCCCOCCCCC(C)(C)C(=O)[O-])C(=O)[O-].[Ca+2] [Sample 1] | 6.3 | 50.4 |  | 
CC(C)(CCCCOCCCCC(C)(C)C(=O)[O-])C(=O)[O-].[Ca+2] [Sample 10] |  |  | 55 | 
CC(C)(CCCCOCCCCC(C)(C)C(=O)[O-])C(=O)[O-].[Ca+2] [Sample 8] | 8.2 | 24 | 48 | 
C#C[C@]1(O)CC[C@H]2[C@@H]3CCc4cc(O)ccc4[C@H]3CC[C@@]21C [ethinyl estradiol] |  |  |  | AUC0-12 (h*pg/mL): Ratio Geom. LS Mean (Treatment B/Treatment A) [3, 5]: 78.54%; AUClast (h*pg/mL): Ratio Geom. LS Mean (Treatment B/Treatment A) [3, 5]: 86.70%; Cmax (pg/mL): Ratio Geom. LS Mean (Treatment B/Treatment A) [3, 5]: 70.50%; exposure in presence of gemcabene calcium salt hydrate Crystal Form 1 (geometric LS mean ratio) [3]: slightly decreased
CC(C)(CCCCOCCCCC(C)(C)C(=O)[O-])C(=O)[O-].[Ca+2] [Sample 9] | 17 | 386 | 996 | 
